Reference: PMC10902181 (Journal of neurochemistry, 2023)
Like-named read-outs stand apart in the source and are kept apart here.

Columns and labels:
Experiment in all cases: TEVC current recordings from Xenopus oocytes, channel blocker inhibition
Type in all cases: cell-based
[1] = target: GluN2A-N615K-containing NMDARs (Homo sapiens, UniProt Q05586+Q12879, N615K); settings: for % inhibition: 2A-N615K, 300 μM blocker, −40 mV; for IC50: IC50, 2A-N615K, holding −40 mV
GluN1-G620R/GluN2A = GluN1-G620R/GluN2A (Homo sapiens, UniProt Q05586+Q12879, G620R); settings: for % inhibition: 1-G620R/2A, 300 μM blocker, −40 mV; for IC50: IC50, 1-G620R/2A, holding −40 mV
[2] = target: GluN2B-N616K-containing NMDARs (Homo sapiens, UniProt Q05586+Q13224, N616K); settings: for % inhibition: 2B-N616K, 300 μM blocker, −40 mV; for IC50: IC50, 2B-N616K, holding −40 mV
[3] = target: GluN2A-N614S-containing NMDARs (Homo sapiens, UniProt Q05586+Q12879, N614S); settings: for % inhibition: 2A-N614S, 300 μM blocker, −40 mV; for IC50: IC50, 2A-N614S, holding −40 mV
GluN1/GluN2B-N615K = GluN1/GluN2B-N615K (Homo sapiens, UniProt Q05586+Q13224, N615K); settings: for % inhibition: 300 μM blocker, −40 mV
[4] = target: GluN2B-V620M-containing NMDARs (Homo sapiens, UniProt Q05586+Q13224, V620M); settings: for % inhibition: 2B-V620M, 300 μM blocker, −40 mV; for IC50: IC50, 2B-V620M, holding −40 mV
GluN1/GluN2A-L611Q = GluN1/GluN2A-L611Q (Homo sapiens, UniProt Q05586+Q12879, L611Q); settings: for % inhibition: 2A-L611Q, 300 μM blocker, −40 mV; for IC50: IC50, 2A-L611Q, holding −40 mV
WT GluN1/GluN2A = WT GluN1/GluN2A (Homo sapiens, UniProt Q05586+Q12879); settings: for IC50: IC50, WT GluN1/WT 2A, holding −40 mV; for % inhibition: WT GluN1/WT 2A, 300 μM blocker, −40 mV
[5] = target: GluN2B-G611V-containing NMDARs (Homo sapiens, UniProt Q05586+Q13224, G611V); settings: for % inhibition: 2B-G611V, 300 μM blocker, −40 mV; for IC50: IC50, 2B-G611V, holding −40 mV
[6] = target: GluN2B-W607C-containing NMDARs (Homo sapiens, UniProt Q05586+Q13224, W607C); settings: for % inhibition: 2B-W607C, 300 μM blocker, −40 mV; for IC50: IC50, 2B-W607C, holding −40 mV
GluN1/GluN2B-N615I = GluN1/GluN2B-N615I (Homo sapiens, UniProt Q05586+Q13224, N615I); settings: for % inhibition: 2B-N615I, 300 μM blocker, −40 mV; for IC50: IC50, 2B-N615I, holding −40 mV
[7] = target: GluN2B-V618G-containing NMDARs (Homo sapiens, UniProt Q05586+Q13224, V618G); settings: for % inhibition: 2B-V618G, 300 μM blocker, −40 mV; for IC50: IC50, 2B-V618G, holding −40 mV
WT GluN1/GluN2B = WT GluN1/GluN2B (Homo sapiens, UniProt Q05586+Q13224); settings: for IC50: IC50, WT GluN1/WT 2B, holding −40 mV; for % inhibition: WT GluN1/WT 2B, 300 μM blocker, −40 mV

COc1ccc2c(c1)[C@]13CCCC[C@@H]1[C@H](C2)N(C)CC3 [dextromethorphan]
% inhibition ([1]; w/ 1 mM Mg^2+): 97 ± 0.9% (12)^¥
% inhibition ([1]; w/o Mg^2+): 98 ± 1.4% (8)
enhanced potency in comparison to WT NMDARs ([1]; GluN2A-N615K, absence of Mg^2+): 2.7 fold
enhanced potency compared to the WT receptors ([1]; GluN2A-N615K, presence of 1 mM Mg^2+): 8.3 fold
IC50 ([1]; w/ 1 mM Mg^2+): 3 µM
IC50 ([1]; w/o Mg^2+): 3.8 µM
% inhibition (GluN1-G620R/GluN2A; w/ 1 mM Mg^2+): 96 ± 1.5% (8)^¥
% inhibition (GluN1-G620R/GluN2A; w/o Mg^2+): 97 ± 1.4% (14)
enhanced potency in comparison to WT NMDARs (GluN1-G620R/GluN2A; GluN1-G620R, absence of Mg^2+): 2.5 fold
enhanced potency compared to the WT receptors (GluN1-G620R/GluN2A; GluN1-G620R, presence of 1 mM Mg^2+): 5.7 fold
IC50 (GluN1-G620R/GluN2A; w/ 1 mM Mg^2+): 4.4 µM
IC50 (GluN1-G620R/GluN2A; w/o Mg^2+): 4.4 µM
% inhibition ([2]; w/ 1 mM Mg^2+): 93 ± 1.6% (7)
% inhibition ([2]; w/o Mg^2+): 94 ± 1.7% (10)
enhanced potency compared to the WT receptors ([2]; GluN2B-N616K, presence of 1 mM Mg^2+): 4.9 fold
IC50 ([2]; w/ 1 mM Mg^2+): 4.5 µM
IC50 ([2]; w/o Mg^2+): 3.2 µM
% inhibition ([3]; w/ 1 mM Mg^2+): 85 ± 2.7% (11)
% inhibition ([3]; w/o Mg^2+): 85 ± 3.0% (10)^¥
IC50 ([3]; w/ 1 mM Mg^2+): 32 µM
IC50 ([3]; w/o Mg^2+): 22 µM
IC50 (GluN1/GluN2B-N615K): > 300 µM
% inhibition (GluN1/GluN2B-N615K; 2B-N615K, w/ 1 mM Mg^2+): 33 ± 3.7% (18) ^*^¥
% inhibition (GluN1/GluN2B-N615K; 2B-N615K, w/o Mg^2+): 14 ± 2.7% (8)^¥
IC50 (GluN1/GluN2B-N615K; 2B-N615K, w/ 1 mM Mg^2+, holding −40 mV): > 300 µM
% inhibition ([4]; w/ 1 mM Mg^2+): 87 ± 3.2% (8)
% inhibition ([4]; w/o Mg^2+): 93 ± 3.2% (8)
enhanced potency in comparison to WT NMDARs ([4]; GluN2B-V620M, absence of Mg^2+): 2.7 fold
enhanced potency compared to the WT receptors ([4]; GluN2B-V620M, presence of 1 mM Mg^2+): 6.3 fold
IC50 ([4]; w/ 1 mM Mg^2+): 3.5 µM
IC50 ([4]; w/o Mg^2+): 1.8 µM
% inhibition (GluN1/GluN2A-L611Q; w/ 1 mM Mg^2+): 89 ± 2.3% (8)
% inhibition (GluN1/GluN2A-L611Q; w/o Mg^2+): 91 ± 1.4% (16)
IC50 (GluN1/GluN2A-L611Q; w/ 1 mM Mg^2+): 36 µM
IC50 (GluN1/GluN2A-L611Q; w/o Mg^2+): 27 µM
IC50 (WT GluN1/GluN2A; w/ 1 mM Mg^2+): 25 µM
IC50 (WT GluN1/GluN2A; w/o Mg^2+): 11 µM
% inhibition (WT GluN1/GluN2A; w/ 1 mM Mg^2+): 88 ± 3.3% (10)
% inhibition (WT GluN1/GluN2A; w/o Mg^2+): 95 ± 1.6% (19)
% inhibition ([5]; w/ 1 mM Mg^2+): 97 ± 1.0% (10)
% inhibition ([5]; w/o Mg^2+): 94 ± 2.3% (10)
enhanced potency compared to the WT receptors ([5]; GluN2B-G611V, presence of 1 mM Mg^2+): 3.5 fold
IC50 ([5]; w/ 1 mM Mg^2+): 6.2 µM
IC50 ([5]; w/o Mg^2+): 3.6 µM
% inhibition ([6]; w/ 1 mM Mg^2+): 95 ± 1.4% (12)
% inhibition ([6]; w/o Mg^2+): 90 ± 2.8% (11)
reduced potency in 1 mM Mg^2+ vs absence of Mg^2+ ([6]; GluN2B-W607C): 3 fold
IC50 ([6]; w/ 1 mM Mg^2+): 11 µM
IC50 ([6]; w/o Mg^2+): 3.7 µM
% inhibition (GluN1/GluN2B-N615I; w/ 1 mM Mg^2+): 94 ± 1.5% (11)
% inhibition (GluN1/GluN2B-N615I; w/o Mg^2+): 95 ± 1.4% (14)
IC50 (GluN1/GluN2B-N615I; w/ 1 mM Mg^2+): 17 µM
IC50 (GluN1/GluN2B-N615I; w/o Mg^2+): 15 µM
% inhibition ([7]; w/ 1 mM Mg^2+): 83 ± 4.0% (10)
% inhibition ([7]; w/o Mg^2+): 85 ± 1.7% (11)^¥
reduced potency compared to the WT receptors ([7]; GluN2B-V618G, presence of 1 mM Mg^2+): 3.2 fold
IC50 ([7]; w/ 1 mM Mg^2+): 71 µM
IC50 ([7]; w/o Mg^2+): 45 µM
IC50 (WT GluN1/GluN2B; w/ 1 mM Mg^2+): 22 µM
IC50 (WT GluN1/GluN2B; w/o Mg^2+): 4.8 µM
% inhibition (WT GluN1/GluN2B; w/ 1 mM Mg^2+): 90 ± 1.9% (18)
% inhibition (WT GluN1/GluN2B; w/o Mg^2+): 95 ± 1.2% (15)
